Molecules are shown by their SMILES.

A word on the IC50: it is the concentration needed to halve the response being measured.

The target in this test is T1, human recombinant collagenase (Homo sapiens, UniProt P03956).
T1 construct: made in house; host or cells: E. coli
T1 sequence (P03956 100-469): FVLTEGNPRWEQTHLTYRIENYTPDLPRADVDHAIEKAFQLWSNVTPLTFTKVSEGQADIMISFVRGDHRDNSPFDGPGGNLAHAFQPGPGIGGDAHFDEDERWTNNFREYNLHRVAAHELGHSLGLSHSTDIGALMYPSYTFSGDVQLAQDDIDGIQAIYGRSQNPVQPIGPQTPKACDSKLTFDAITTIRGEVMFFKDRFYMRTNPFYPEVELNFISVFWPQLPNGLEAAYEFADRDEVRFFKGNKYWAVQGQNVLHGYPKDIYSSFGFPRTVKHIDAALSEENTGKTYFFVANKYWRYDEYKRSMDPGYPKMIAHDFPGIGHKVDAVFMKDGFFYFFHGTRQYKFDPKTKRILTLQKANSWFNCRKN
The experiment in a line: Collagenase inhibition assay. In kind it is biochemical. The settings on record: acetylated 3H type 1 bovine collagen, 37° C., 18 h. As to the method: Procedure 2: The ability of test compounds to inhibit collagenase was investigated using the following procedure.
Collagenase Inhibition Assay:
The potency of compounds to act as inhibitors of collagenase was determined by the method of Cawston and Barrett (Anal. Biochem. 99, 340-345, 1979), hereby incorporated by reference, whereby a 1 mM solution of the inhibitor being tested or dilutions thereof, was incubated at 37° C. for 18 h with collagen and human recombinant collagenase, from synovial fibroblasts cloned, expressed and purified from E. Coli, (buffered with 150 mM Tris, pH 7.6. containing 15 mM calcium chloride, 0.05% Brij 35.200 mM sodium chloride and 0.02% sodium azide). The collagen was acetylated ^3H type 1 bovine collagen prepared by the method of Cawston and Murphy (methods in Enzymology 80. 711,1981) The samples were centrifuged to sediment undigested collagen and an aliquot of the radioactive supernatant removed for assay on a scintillation counter as a measure of hydrolysis. The collagenase activity in the presence of 1 mM inhibitor, or dilution thereof, was compared to activity in a control devoid of inhibitor and the results reported as that concentration effecting 50% of the collagenase (IC50).
For the compound `O=C(NO)[C@@H](C1CCCCC1)N(Cc1ccco1)S(=O)(=O)Cc1ccc2sccc2c1` [Example 14, (R)-2-[(Benzo[b]thiophen-5-ylmethanesulfonyl)(furan-2-ylmethyl)-amino]-2-cyclohexyl-N-hydroxy-acetamide], the IC50 was not above 10 µM.
Under `O=C(NO)C(c1ccccc1)N(Cc1cccnc1)S(=O)(=O)Cc1ccc2sccc2c1` (racemic) [Example 2, (R,S)-2-[(Benzo[b]thiophen-5-ylmethanesulfonyl)(pyridin-3-ylmethyl)-amino]-N-hydroxy-2-phenylacetamide] stands not above 10 µM.
Under `COCCOCCN([C@@H](C(=O)NO)c1ccccc1)S(=O)(=O)Cc1ccc2sccc2c1` [Example 1, (R)-2-{(Benzo[b]thiophen-5-ylmethanesulfonyl)[2-(2-methoxyethoxy)-ethyl]amino}-N-hydroxy-2-phenylacetamide] stands not above 10 µM.
For `CC(C)C[C@H](C(=O)NO)N(Cc1cccnc1)S(=O)(=O)Cc1ccc2sccc2c1` [Example 8] the value was not above 10 µM.

For the origin of these results see patent US20030134880A1, “Novel cd23 inhibitors” (priority 2000, published 2003).
